Values belong to the compound of their own block, whether it stands above or below them.
Columns and labels:
[1] = tested on: L-type calcium channels (LTCC); assay: High-throughput fluorescence Ca2+ flux assay; conditions: for Dose-response profile / effect on K+-induced Ca2+ influx: PC12 cells, Fura-2/AM, 50 mM KCl; for IC50: read-out: IC50 for the inhibition of K+-induced Ca2+ influx, PC12 cells loaded with Fura-2/AM, 10 min preincubation, depolarization with 50 mM KCl
PC12 cells [2] = assay: LDH release cell viability assay, with and without 200 μM H2O2; assay type: cell-based, rat; conditions: for Attenuation of H2O2-induced LDH release: 200 μM H2O2 24 h, p<0.05; for LDH release by compound alone (inherent toxicity): absence of H2O2, 100 μM, PC12 cells
PC12 cells [3] = tested on: PC12 cells

Compound: 3-Hydroxy-3,11-oxatricyclo[6.3.0.0^2,6]undecane [Compound 11]
- Dose-response profile / effect on K+-induced Ca2+ influx [1]: potentiating effect

Compound: O=C1C2C3CC4C2C(=O)C2C1C3C42 (stereo not drawn) [Compound 4, Pentacyclo[5.4.0.0^2,6.0^3,10.0^5,9]undecane-8,11-dione]
- Dose-response profile / effect on K+-induced Ca2+ influx [1]: no activity

Compound: c1ccc(CNC23OC4C5C6CC(C7C6C4C72)C53)cc1 (stereo not drawn) [Compound 7a, 8-benzylamino-8,11-oxapentacyclo[5.4.0.0^2,6.0^3,10.0^5,9]undecane]
- Attenuation of H2O2-induced LDH release (PC12 cells [2]; compound at 1, 10 and 100 μM): significant attenuation of LDH release
- LDH release by compound alone (inherent toxicity) (PC12 cells [2]): some LDH release
- Reduction of H2O2-induced toxicity (Trypan blue exclusion) (PC12 cells [3]; 200 μM H2O2, compound at 1, 10 and 100 μM, p<0.05): significant reduction
- IC50 [1]: 86 µM

Compound: OC12C3C4CC5C6C4C1C6C(C53)N2Cc1ccccc1 (stereo not drawn) [Compound 8a, N-Benzyl-3-hydroxy-4-azahexacyclo[5.4.1.0^2,6.0^3,10.0^5,9. 0^8,11]dodecane]
- IC50 [1]: 35 µM

Compound: OC12C3C4CC5C6C4C1C6C(C53)N2CCc1ccccc1 (stereo not drawn) [Compound 8b, N-Phenylethyl-3-hydroxy-4-azahexacyclo[5.4.1.0^2,6.0^3,10 0^5,9.0^8,11]dodecane]
- Attenuation of H2O2-induced LDH release (PC12 cells [2]; compound at 1 and 10 μM): significant attenuation of LDH release
- LDH release by compound alone (inherent toxicity) (PC12 cells [2]): some LDH release
- Protection in the cell viability assay (Trypan blue) (PC12 cells [3]; 200 μM H2O2, concentration not stated): able to offer protection
- Change in cell viability by compound alone (Trypan blue exclusion) (PC12 cells [3]; absence of H2O2, 10 and 100 μM, versus untreated cells): slight decrease in cell viability
- IC50 [1]: 8 µM

Compound: CCCCCCCN1C2C3C4CC5C6C4C2C6C1(O)C53 (stereo not drawn) [Compound 8c, N-Heptyl-3-hydroxy-4-azahexacyclo[5.4.1.0^2,6.0^3,10.0^5,9. 0^8,11]dodecane]
- IC50 [1]: 7 µM

Compound: O=C1CCC2CC3CCC(=O)C3C12 (stereo not drawn) [Compound 10, Tricyclo[6.3.0.0^2,6]undecane-3,11-dione]
- Dose-response profile / effect on K+-induced Ca2+ influx [1]: slight potentiating effect but no antagonistic activity

- IC50 [1]: 11 µM
Compound: COc1cccc(CN2C3CCC4CC5CCC2C5C43)c1 (stereo not drawn) [Compound 14e, N-(3-Methoxybenzyl)-3,11-azatricyclo[6.3.0.0^2,6]undecane]

Compound: c1cc(CN2C3CCC4CC5CCC2C5C43)ccn1 (stereo not drawn) [Compound 14f, N-(Pyridin-4-ylmethyl)-3,11-azatricyclo[6.3.0.0^2,6]-undecane]
- IC50 [1]: 5 µM

- IC50 [1]: 74 µM
Compound: N-Benzyl-3,11-azatricyclo[6.3.0.0^2,6]undecane [Compound 14a]

- IC50 [1]: 68 µM
Compound: N-Cyclohexylmethyl-3,11-azatricyclo[6.3.0.0^2,6]undecane [Compound 14d]
